The text below walks through data of patent US12024503B2, “Benzethers and anilines of pyrazolyl-amino-pyrimidinyl derivatives, and compositions and methods thereof” (LYNK PHARMACEUTICALS CO. LTD., priority 2019, dated 2024).

Common to all, as to assay type: biochemical
One experiment deals with T1, JAK1 (Homo sapiens, UniProt P23458).
T1 construct: purchased Carna Biosciences
The experiment is described as follows: JAK1 microfluidic kinase assay (Caliper EZ Reader II, FAM labeled peptide substrate). Particulars: (5 nM), 1 mM ATP. As for the experimental part: (§1) Compounds were tested against JAK1, JAK2, JAK2V617F and TYK2.
(§2) Assay Formats: JAK activity was determined in the reaction buffer 50 mM HEPES, 0.01% Brij35, 10 mMMgCl2, 2 mMDTT by a microfluidic assay. The phosphorylation of a FAM labeled peptide substrate was monitored in the Caliper EZ Reader II (Perkin Elmer). The assay condition for each batch of enzyme (Carna Biosciences) was optimized to obtain 10% conversion rate of peptide substrate.
(§3) The test compounds were dissolved in DMSO to a stock concentration of 10 mM. 3-fold serially diluted compounds with top concentration of 5 μM were pre-incubated with JAK1, JAK2, JAK2V617F or TYK2 for 10 min at ambient temperature. The final DMSO concentration of assay mixture was 1%. FAM labeled peptide substrate (final concentration […]) and ATP (1 mM concentration) were sequentially added to initiate the kinase reaction at 28° C. The reaction was stopped by adding 50 mMEDTA. The reaction time for JAK1, JAK2, JAK2V617F and TYK2 was 120 min, 20 min, 30 min and 10 min, respectively.
(§4) The well in the test plate without enzyme was defined as 100% inhibition. And the well without compound but with equivalent DMSO was defined as no inhibition. The percent inhibition was calculated by the following formula. % Inhibition=(Conversionmax−Conversionsample)/(Conversionmax−Conversionmin)*100Conversionmax means the conversion rate in the positive well without addition of compound Conversionmin means the conversion rate in the well without addition of enzyme Conversionsample means the conversion rate of test compounds
(§5) The dose-response (percent inhibition) curve was plotted and IC50 values were determined by GraphPad software.

Another experiment addresses T2, JAK2V617F (Homo sapiens, UniProt O60674, V617F).
T2 construct: purchased Carna Biosciences
The experiment is described as follows: JAK2V617F microfluidic kinase assay (Caliper EZ Reader II, FAM labeled peptide substrate). Particulars: (2.5 nM), 1 mM ATP. As for the experimental part: as §1, §2, §3, §4, §5

The target in the next experiment is T3, JAK2 (Homo sapiens, UniProt O60674).
T3 construct: purchased Carna Biosciences
Put plainly: JAK2 microfluidic kinase assay (Caliper EZ Reader II, FAM labeled peptide substrate). Particulars: (0.25 nM), 1 mM ATP. As for the experimental part:
as §1, §2, §3, §4, §5

The mark [1] stands for this setting: Table 2, read-out: IC50 JAK1 (5 nM) (1 mM ATP).
Setting [2] is: Table 2, read-out: IC50 J2V617F (2.5 nM) (1 mM ATP).
The mark [3] stands for this setting: Table 2, read-out: IC50 JAK2 (0.25 nM) (1 mM ATP).
[4] abbreviates: Table 3B, literature compounds, read-out: JAK1 (5 nM) (1 mM ATP).
Setting [5] is: Table 3B, literature compounds, read-out: J2V617F (2.5 nM) (1 mM ATP).
The mark [6] stands for this setting: Table 3B, literature compounds, read-out: JAK2 (0.25 nM) (1 mM ATP).

Each structure is given as a SMILES string. Like-named read-outs stand apart in the source and are kept apart here.

T1 sequence (P23458 whole entry): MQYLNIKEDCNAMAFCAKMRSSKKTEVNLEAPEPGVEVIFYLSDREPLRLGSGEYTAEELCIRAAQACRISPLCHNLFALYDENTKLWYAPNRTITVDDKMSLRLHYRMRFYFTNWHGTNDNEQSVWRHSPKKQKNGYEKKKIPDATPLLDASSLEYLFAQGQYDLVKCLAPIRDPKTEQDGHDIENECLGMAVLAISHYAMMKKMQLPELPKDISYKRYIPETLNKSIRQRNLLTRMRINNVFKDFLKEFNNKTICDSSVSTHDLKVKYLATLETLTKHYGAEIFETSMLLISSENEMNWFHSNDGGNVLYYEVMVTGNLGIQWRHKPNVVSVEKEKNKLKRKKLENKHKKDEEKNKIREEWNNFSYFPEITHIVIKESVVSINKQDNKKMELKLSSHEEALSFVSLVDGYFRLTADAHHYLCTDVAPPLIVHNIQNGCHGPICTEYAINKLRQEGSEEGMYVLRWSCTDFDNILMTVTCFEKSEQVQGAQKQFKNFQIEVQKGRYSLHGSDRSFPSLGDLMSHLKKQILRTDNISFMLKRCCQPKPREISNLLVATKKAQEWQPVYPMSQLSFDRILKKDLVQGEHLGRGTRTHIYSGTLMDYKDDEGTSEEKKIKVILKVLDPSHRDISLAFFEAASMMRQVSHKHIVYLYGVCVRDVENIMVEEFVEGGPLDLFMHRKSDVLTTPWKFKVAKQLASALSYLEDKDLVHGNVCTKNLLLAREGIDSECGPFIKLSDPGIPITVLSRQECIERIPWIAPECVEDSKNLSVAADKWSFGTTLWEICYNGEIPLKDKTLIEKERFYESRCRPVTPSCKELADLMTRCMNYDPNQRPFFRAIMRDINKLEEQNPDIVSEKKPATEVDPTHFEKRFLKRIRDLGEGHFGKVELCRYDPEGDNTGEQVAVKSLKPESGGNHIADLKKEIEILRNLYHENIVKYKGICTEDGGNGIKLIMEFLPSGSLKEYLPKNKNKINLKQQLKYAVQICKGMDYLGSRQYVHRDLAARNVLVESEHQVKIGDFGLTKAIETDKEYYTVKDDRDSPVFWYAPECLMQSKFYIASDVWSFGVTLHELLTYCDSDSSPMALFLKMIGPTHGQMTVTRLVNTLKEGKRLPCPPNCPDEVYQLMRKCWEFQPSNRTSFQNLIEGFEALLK
T2 sequence (O60674 whole entry V617F): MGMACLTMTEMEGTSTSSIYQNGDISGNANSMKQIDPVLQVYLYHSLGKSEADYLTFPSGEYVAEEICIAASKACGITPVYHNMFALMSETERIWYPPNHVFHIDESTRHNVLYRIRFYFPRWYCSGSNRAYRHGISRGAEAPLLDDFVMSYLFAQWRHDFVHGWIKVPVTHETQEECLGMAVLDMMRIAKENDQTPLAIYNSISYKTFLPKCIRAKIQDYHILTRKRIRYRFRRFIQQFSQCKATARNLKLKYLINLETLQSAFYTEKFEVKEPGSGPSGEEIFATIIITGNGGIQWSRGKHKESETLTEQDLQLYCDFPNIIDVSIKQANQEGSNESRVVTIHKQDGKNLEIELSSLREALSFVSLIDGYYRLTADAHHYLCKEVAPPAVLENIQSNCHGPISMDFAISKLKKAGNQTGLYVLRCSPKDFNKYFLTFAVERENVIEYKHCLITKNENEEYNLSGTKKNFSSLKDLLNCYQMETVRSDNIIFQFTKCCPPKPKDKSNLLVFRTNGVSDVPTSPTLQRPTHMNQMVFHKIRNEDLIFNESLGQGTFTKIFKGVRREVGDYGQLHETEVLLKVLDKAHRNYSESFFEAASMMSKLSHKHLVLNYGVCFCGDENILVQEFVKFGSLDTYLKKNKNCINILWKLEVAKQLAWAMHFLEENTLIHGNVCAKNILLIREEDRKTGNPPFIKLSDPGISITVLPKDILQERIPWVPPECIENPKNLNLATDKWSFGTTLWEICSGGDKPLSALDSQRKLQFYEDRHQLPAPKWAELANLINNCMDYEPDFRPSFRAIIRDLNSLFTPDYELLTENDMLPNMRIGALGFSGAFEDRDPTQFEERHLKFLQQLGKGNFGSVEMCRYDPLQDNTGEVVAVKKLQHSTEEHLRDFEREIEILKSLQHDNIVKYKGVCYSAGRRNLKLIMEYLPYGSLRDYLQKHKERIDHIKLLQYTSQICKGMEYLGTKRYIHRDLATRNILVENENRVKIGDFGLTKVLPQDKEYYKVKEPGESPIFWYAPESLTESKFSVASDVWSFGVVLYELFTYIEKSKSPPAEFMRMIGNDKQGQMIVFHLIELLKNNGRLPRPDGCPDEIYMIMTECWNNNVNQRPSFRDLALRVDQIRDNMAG
T3 sequence (O60674 whole entry): as the sequence (O60674 whole entry V617F) above, with F617V counted along it

Turning to `Cc1cnc(Nc2cnn(C3CC3)c2)nc1-c1ccc(OC2CC(C#N)C2)cc1` (centres unmarked) [Example 2, 3-(4-(2-((1-cyclopropyl-1H-pyrazol-4-yl)amino)-5-methylpyrimidin-4-yl)phenoxy)cyclobutanecarbonitrile], the IC50 at JAK1 (setting [1]) was 72.7 nM; on JAK2V617F (setting [2]), 171 nM.

Take `N#CC1(COc2ccc(-c3nc(Nc4cnn(C5CCOCC5)c4)ncc3F)cc2F)CC1` [Example 22, 1-((2-fluoro-4-(5-fluoro-2-((1-(tetrahydro-2H-pyran-4-yl)-1H-pyrazol-4-yl)amino)pyrimidin-4-yl)phenoxy)methyl)cyclopropane-carbonitrile]: the values for the IC50 at JAK1 (setting [1]) and on JAK2V617F (setting [2]) were 136 nM and 56.8 nM, respectively.

For the compound `CC(=O)N1CCC(n2cc(Nc3ncc(C)c(-c4ccc(OCC5(C#N)CC5)c(F)c4)n3)cn2)CC1` [Example 13, 1-((4-(2-((1-(1-acetylpiperidin-4-yl)-1H-pyrazol-4-yl)amino)-5-methylpyrimidin-4-yl)-2-fluorophenoxy)methyl)cyclopropane-carbonitrile], the IC50 was 5.58 nM on JAK1 (setting [1]) and < 1.25 nM on JAK2V617F (setting [2]).

In the case of `Cc1cnc(Nc2cnn(CC#N)c2)nc1-c1ccc(OCC(C)(C)C#N)c(F)c1` [Example 30, 3-(4-(2-((1-(cyanomethyl)-1H-pyrazol-4-yl)amino)-5-methylpyrimidin-4-yl)-2-fluorophenoxy)-2,2-dimethylpropanenitrile], the IC50 at JAK1 (setting [1]) is < 2.5 nM; at JAK2 (setting [3]), 0.3 nM.

`Cc1cnc(Nc2cnn(C3CC3)c2)nc1-c1ccc2c(c1)CC(C#N)CO2` (centres unmarked) [Example 34, 6-(2-((1-cyclopropyl-1H-pyrazol-4-yl)amino)-5-methylpyrimidin-4-yl)chroman-3-carbonitrile]: the values for the IC50 at JAK1 (setting [1]) and at JAK2 (setting [3]) were 136 nM and 58.8 nM, respectively.

With `N#CC1(COc2ccc(-c3nc(Nc4cnn(C5CCOCC5)c4)ncc3Cl)cc2F)CC1` [Example 23, 1-((4-(5-chloro-2-((1-(tetrahydro-2H-pyran-4-yl)-1H-pyrazol-4-yl)amino)pyrimidin-4-yl)-2-fluorophenoxy)methyl)cyclopropane-carbonitrile], the IC50 on JAK1 (setting [1]) was 13.6 nM; on JAK2V617F (setting [2]), < 1.25 nM.

Regarding `Cc1cnc(Nc2cnn(C3CCOCC3)c2)nc1-c1ccc(OC(C)C(C)(C)C#N)cc1` (centres unmarked) [Example 16, 2,2-dimethyl-3-(4-(5-methyl-2-((1-(tetrahydro-2H-pyran-4-yl)-1H-pyrazol-4-yl)amino)pyrimidin-4-yl)phenoxy)butanenitrile], the values for the IC50 on JAK1 (setting [1]) and at JAK2V617F (setting [2]) were 39.2 nM and 6.33 nM, respectively.

As to `Cc1cnc(Nc2cnn(C3CCOCC3)c2)nc1-c1ccc(OCC(C)(C)C#N)cc1` [Example 15, 2,2-dimethyl-3-(4-(5-methyl-2-((1-(tetrahydro-2H-pyran-4-yl)-1H-pyrazol-4-yl)amino)pyrimidin-4-yl)phenoxy)propanenitrile], the IC50 at JAK1 (setting [1]) is 5.71 nM; on JAK2V617F (setting [2]), < 1.25 nM.

With `Cc1cnc(Nc2cnn(C3CCN(C(=O)C4CC4)CC3)c2)nc1-c1ccc(OCC2(C#N)CC2)c(F)c1` [Example 8, 1-((4-(2-((1-(1-(cyclopropanecarbonyl)piperidin-4-yl)-1H-pyrazol-4-yl)amino)-5-methylpyrimidin-4-yl)-2-fluorophenoxy)methyl)cyclopropane-carbonitrile], the results for the IC50 on JAK1 (setting [1]) and at JAK2V617F (setting [2]) were 6.2 nM and < 1.25 nM, respectively.

As to `Cc1cnc(Nc2cnn(C3CC3)c2)nc1-c1cc(F)c(OCC2(C#N)CC2)c(F)c1` [Example 10, 1-((4-(2-((1-cyclopropyl-1H-pyrazol-4-yl)amino)-5-methylpyrimidin-4-yl)-2,6-difluorophenoxy)methyl)cyclopropane carbonitrile], the results for the IC50 at JAK1 (setting [1]) and on JAK2V617F (setting [2]) were 124 nM and 113 nM, respectively.

Consider `N#CC1(COc2ccc(-c3nc(Nc4cnn(C5CC5)c4)ncc3F)cc2F)CC1` [Example 24, 1-((4-(2-((1-cyclopropyl-1H-pyrazol-4-yl)amino)-5-fluoropyrimidin-4-yl)-2-fluorophenoxy)methyl)cyclopropane-carbonitrile], for which the IC50 is 84.2 nM at JAK1 (setting [1]) and 111 nM at JAK2V617F (setting [2]).

For `CC(C)(C#N)COc1ccc(-c2nc(Nc3cnn(C4CCOCC4)c3)ncc2F)cc1F` [Example 25, 3-(2-fluoro-4-(5-fluoro-2-((1-(tetrahydro-2H-pyran-4-yl)-1H-pyrazol-4-yl)amino)pyrimidin-4-yl)phenoxy)-2,2-dimethylpropanenitrile], the IC50 at JAK1 (setting [1]) and at JAK2V617F (setting [2]) was 32 nM each time.

In the case of `CC(=O)N1CCC(n2cc(Nc3ncc(C)c(-c4ccc(OCC(C)(C)C#N)c(F)c4)n3)cn2)CC1` [Example 28, 3-(4-(2-((1-(1-acetylpiperidin-4-yl)-1H-pyrazol-4-yl)amino)-5-methylpyrimidin-4-yl)-2-fluorophenoxy)-2,2-dimethylpropanenitrile], the IC50 is < 2.5 nM at JAK1 (setting [1]) and < 1.25 nM at JAK2V617F (setting [2]).

Consider `Cc1cnc(Nc2cnn(C3CCN(C(=O)C4(C)CC4)CC3)c2)nc1-c1ccc(OCC2(C#N)CC2)c(F)c1` [Example 9, 1-((2-fluoro-4-(5-methyl-2-((1-(1-(1-methylcyclopropanecarbonyl)piperidin-4-yl)-1H-pyrazol-4-yl)amino)pyrimidin-4-yl)phenoxy)methyl)cyclopropane-carbonitrile], for which the IC50 at JAK1 (setting [1]) was 7.06 nM; at JAK2V617F (setting [2]), < 1.25 nM.

For `COc1ccc(-c2nc(Nc3cnn(C)c3)ncc2C)cc1F` [Example 45, 4-(3-fluoro-4-methoxyphenyl)-5-methyl-N-(1-methyl-1H-pyrazol-4-yl)pyrimidin-2-amine, reference compound], the values for the IC50 at JAK1 (setting [4]), on JAK2V617F (setting [5]) and at JAK2 (setting [6]) were 110 nM, 206 nM and 121 nM, respectively.

As for `N#CC1(COc2ccc(-c3nc(Nc4cnn(C5CC5)c4)ncc3Cl)cc2F)CC1` [Example 27, 1-((4-(5-chloro-2-((l-cyclopropyl-1H-pyrazol-4-yl)amino)pyrimidin-4-yl)-2-fluorophenoxy)methyl)cyclopropane carbonitrile], the figures for the IC50 on JAK1 (setting [1]) and at JAK2V617F (setting [2]) were 5.53 nM and 1.49 nM, respectively.

Consider `CCCOc1ccc(-c2nc(Nc3cnn(C)c3)ncc2C)cc1F` [Example 48, 4-(3-fluoro-4-propoxyphenyl)-5-methyl-N-(1-methyl-1H-pyrazol-4-yl)pyrimidin-2-amine, reference compound], for which the IC50 is 25.7 nM on JAK1 (setting [4]), 60 nM on JAK2V617F (setting [5]) and 39.6 nM at JAK2 (setting [6]).

Regarding `CN(CC(C)(C)C#N)c1ccc(-c2nc(Nc3cnn(C4CC4)c3)ncc2Cl)cc1F` [Example 36, 3-((4-(5-chloro-2-((1-cyclopropyl-1H-pyrazol-4-yl)amino)pyrimidin-4-yl)-2-fluorophenyl)(methyl)amino)-2,2-dimethylpropanenitrile], the values for the IC50 at JAK1 (setting [1]) and at JAK2 (setting [3]) were 103 nM and 4.6 nM, respectively.

Consider `Cc1cnc(Nc2cnn(CC#N)c2)nc1-c1ccc(OCC2(C#N)CC2)c(F)c1` [Example 31, 1-((4-(2-((1-(cyanomethyl)-1H-pyrazol-4-yl)amino)-5-methylpyrimidin-4-yl)-2-fluorophenoxy)methyl)cyclopropane-carbonitrile], for which the IC50 on JAK1 (setting [1]) is 7.94 nM; on JAK2 (setting [3]) it was 3.2 nM.

As for `Cc1cnc(Nc2cnn(C3CC3)c2)nc1-c1ccc(N(C)CC(C)(C)C#N)c(F)c1` [Example 35, 3-((4-(2-((1-cyclopropyl-1H-pyrazol-4-yl)amino)-5-methylpyrimidin-4-yl)-2-fluorophenyl)(methyl)amino)-2,2-dimethylpropanenitrile], the IC50 at JAK1 (setting [1]) was found to be 72.1 nM; at JAK2 (setting [3]), 1.66 nM.

As to `Cc1cnc(Nc2cnn(C)c2)nc1-c1ccc(OC(C)C)c(F)c1` [Example 47, 4-(3-fluoro-4-isopropoxyphenyl)-5-methyl-N-(1-methyl-1H-pyrazol-4-yl)pyrimidin-2-amine, reference compound], the results for the IC50 on JAK1 (setting [4]), at JAK2V617F (setting [5]) and at JAK2 (setting [6]) were 48.6 nM, 84.2 nM and 61.3 nM, respectively.

In the case of `CC(C)(C#N)COc1ccc(-c2nc(Nc3cnn(C4CCOCC4)c3)ncc2Cl)cc1F` [Example 26, 3-(4-(5-chloro-2-((1-(tetrahydro-2H-pyran-4-yl)-1H-pyrazol-4-yl)amino)pyrimidin-4-yl)-2-fluorophenoxy)-2,2-dimethylpropanenitrile], the values for the IC50 on JAK1 (setting [1]) and on JAK2V617F (setting [2]) were 6.17 nM and < 1.25 nM, respectively.
